Results on five molecules are retold here after patent publication US4203253A, “Process for increasing oleoresin synthesis in pinus species” (priority 1979, dated 1980).

Each structure is given as a SMILES string. Like-named read-outs stand apart in the source and are kept apart here.

The test system of series [1] is red pine (Pinus resinosa). Put plainly: Nonvolatile extractives and dry weight of treated red pine (Example I, Table I). The conditions noted are these: for Nonvolatile extractives, entire cross section: extracted dry weight. Type of series: in vivo. From the text:
Replicate 20-year-old plantation-grown red pine (Pinus resinosa) of a given diameter class were coned with a watertight cup. Three-hundred milliliters of 2-chloroethylphosphonic acid in various concentrations were placed in the cups, and shallow cuts one-third the circumference were made with a chisel into the xylem portion of the bole under the solution, at approximately 1.5 meters above the ground level. The treatment solution was normally adsorbed within a 24-hour period; this depended, however, on climatic conditions such as temperature and relative humidity. Trees were sacrificed 6 months after treatment and analyzed for nonvolatile extractives at given distances from the point of application, over the entire cross-section of the tree, except where noted (Table I).
^a Trees treated 5/26/76 and harvested 11/2/76. Each tree received 30
milliliters of the indicated concentration of 2chloroethylphosphonic acid
^b Distance in cm from point of treatment application.
^c Ovendry weight/fresh weight.
^d Percentage nonvolatile extractives based on the extracted dry
weight of a sample of the entire cross section.
^e Weight percentage 2chloroethylphosphonic acid in 300 milliliters o
the aqueous treatment solution.
^f Percentage nonvolatile extractives isolated from the visible
lightwood portion of each cross section based on the extracted dry weight
basis of the visible lightwood portion of each cross section.
^g Control trees were wounded and treated with water in the same
manner as the 2chloroethylphosphonic acidtreated trees.

Series [2] relates to slash pine (Pinus elliottii Engelm. var. elliottii). Put plainly: Percent oleoresin in slash pine 2 1/2 years after treatment (Example II, Table II). Type of series: in vivo. As to conditions: for Percent oleoresin: dry weight of section. As to the method: Replicate 40-year-old-slash pine (Pinus elliottii Engelm. var. elliottii) were treated with 5-milliliter aliquotes of 5 percent 2-chloroethylphosphonic acid in bore holes 0.6 meter above the ground. The trees were harvested in March, 1976, 21/2 years after treatment. Analysis of total extractives was made for given portions of the bole beginning 0.5 meter below the point of treatment application (Table II).
^a Percentage based on the dry weight of that section of the tree.
^b Control trees were wounded and treated with water.

Series [3] shares this test system. It counts as in vivo. The conditions noted are these: for Rosin yield: 6 months, extracted dry weight. As to the method: (§1) On Sept. 14, 1973, replicate slash pine (Pinus elliottii Engelm. var. elliottii) were treated with 5 milliliters of either 1 percent (wt.) paraquat, 1 percent (wt.) diquat, 1percent (wt.) diquat plus 5 percent (wt.) 2-chloroethylphosphonic acid or 5 percent (wt.) 2-chloroethylphosphonic acid solutions placed in a bore hole. Each type of treatment was applied to 25 trees selected at random. One tree from each treatment was cut in January 1974. […] Six trees from each treatment were cut in March of 1974, approximately 6 months after treatment.

Series [4] has the same test system. The series is described as follows: Average lightwood heights in slash pines (Example V, Table V). The conditions noted are these: for Average lightwood height: 0% 2-chloroethylphosphonic acid. It counts as in vivo. The protocol: On October 6 and 7, 1975, a study was begun using replicate slash pine (Pinus elliottii Engelm. var. elliottii) to explore the action of 2-chloroethylphosphonic acid in combination with diquat and/or paraquat. Each tree in the study was treated three times. The first treatment was in October in 1975, the second in March of 1976, and the third in September of 1976. Each time 5 milliliters of a solution of 2-chloroethylphosphonic acid plus paraquat and/or diquat were applied to the tree in a bore hole angled to intersect approximately one-sixth of the trunk. After treatment, the bore hole was stoppered to prevent the escape of ethylene. The trees were cut during November and December of 1976.
^a Measured from point of treatment application.

For series [5] the following is noted: cited from earlier work.
For another series, the system named is rats. As to conditions: cited from earlier work.
For series [6], the system named is slash pine (Pinus elliottii Engelm. var. elliottii). The series is described as follows: Oleoresin content and visible lightwood height in slash pines 26 months after treatment (Example IV, Table IV). It counts as in vivo. As to conditions: for Oleoresin content / Oleoresin content, average per unit total volume: 26 months; for Oleoresin content: extracted dry weight; for Visible lightwood height: 26 months after treatment. As to the method: as §1

The test system is the same in series [7]. It counts as in vivo. As to conditions: 0% 2-chloroethylphosphonic acid, 1.6 years.
For the next series, the system named is mice. The conditions noted are these: asphyxiation by exclusion of oxygen; cited from earlier work.
Series [8] concerns endogenous ethylene production. The conditions noted are these: systemically applied; cited from earlier work.
Setting [9] is: 0.213 wt%, distance printed "+=".
The mark [10] stands for this setting: 1.064 wt%, distance "30." [sic].
Setting [11] is: distance above wound printed "0.05" m.
[12] abbreviates: bipyridilium 0.5% (wt) in total.

Consider `O=P(O)(O)CCCl` [2-chloroethylphosphonic acid], for which the “Dry weight (ovendry weight/fresh weight)” value came out at 44.5 Pct in [1] (0.0213 wt%, +15 cm from application); 46.6 Pct in series [1] (0.0213 wt%, +50 cm from application); 43.1 Pct in [1] (0.0213 wt%, -15 cm from application); 44.8 Pct in series [1] (0.213 wt%, +15 cm from application); 45.5 Pct in series [1] (0.213 wt%, -15 cm from application); 46.5 Pct in series [1] (setting [9]). The “Dry weight (ovendry weight/fresh weight)” value is 56.7 Pct in [1] (1.064 wt%, +50 cm from application); 50.3 Pct in [1] (1.064 wt%, +110 cm from application); 50.1 Pct in series [1] (1.064 wt%, +150 cm from application); 54.1 Pct in series [1] (1.064 wt%, -15 cm from application); 58.9 Pct in [1] (setting [10]); 67.8 Pct in [1] (2.127 wt%, +15 cm from application). Moreover, the “Dry weight (ovendry weight/fresh weight)” value was found to be 69.7 Pct in [1] (2.127 wt%, +50 cm from application) and 66.5 Pct in series [1] (2.127 wt%, -15 cm from application). Moreover, the “Nonvolatile extractives, entire cross section” value turned out to be 3.7 Pct in series [1] (0.0213 wt%, +15 cm); 3.4 Pct in series [1] (0.0213 wt%, +50 cm); 3.1 Pct in [1] (0.0213 wt%, -15 cm); 3.2 Pct in series [1] (0.213 wt%, +15 cm); 3.4 Pct in [1] (0.213 wt%, -15 cm); 3.4 Pct in series [1] (setting [9]). For the same molecule, the “Nonvolatile extractives, entire cross section” value is reported as 7.2 Pct in [1] (1.064 wt%, +50 cm); 3.4 Pct in series [1] (1.064 wt%, +110 cm); 3.8 Pct in series [1] (1.064 wt%, +150 cm); 4.0 Pct in [1] (1.064 wt%, -15 cm); 6.2 Pct in series [1] (setting [10]); 3.1 Pct in series [1] (2.127 wt%, +15 cm). The “Nonvolatile extractives, entire cross section” value in series [1] (2.127 wt%, +50 cm) was found to be 3.1 Pct; in series [1] (2.127 wt%, -15 cm), 5.4 Pct. The “Increase of extractive content versus water-treated controls” value in [1] (1.064 percent (wt.), red pine, 6 months) is reported as “Doubling of the extractive content”. In addition, the “Nonvolatile extractives, visible lightwood portion” value in series [1] (1.064 wt%, +50 cm) is listed as 18.8 Pct; in series [1] (setting [10]) it was 9.3 Pct. Further, the “Change in dry weight percentage (oven dry weight/fresh weight)” value in series [1] (treated trees, dehydration) is on record as “increase in dry weight percentage”. In addition, the “Increase in extractives in visibly lightered portions versus control trees” value in series [1] (visible lightering portions of cross section) is listed as “three to six times that of control trees”. In addition, the Percent oleoresin is 4.3% in series [2] (5% (wt), 0-3 m from application, 2 1/2 years); 3.7% in series [2] (5% (wt), 3-6 m from application, 2 1/2 years); 3.1% in series [2] (5% (wt), above 6 m from application, 2 1/2 years). Also, the “Percent oleoresin, average” value in [2] (5% (wt), average, dry weight, 2 1/2 years) worked out at 3.6%. Besides, the Visible lightwood entry in [2] (5 percent, 2 1/2 years after treatment) is given as “No visible lightwood was observed”. In addition, the “Distance holding most of the increase in oleoresin production” value in series [2] (5 percent, 5 ml in bore holes) is on record as 0-3 meters. For the same molecule, the “Increase of volatile versus nonvolatile oleoresins” value in series [2] (5 percent, 5 ml in bore holes) is recorded as “A greater increase in the volatile (turpentine) than in the nonvolatile (resin) oleoresins”. The molecule further registered a Rosin yield in series [3] (0 m above wound) of 2.6 Pct. For the same molecule, the “Stimulation of visible lightwood formation” value in series [3] (5 percent (wt.) alone, approximately 6 months) is “did not stimulate visible lightwood formation”. Also, the “Effect on lightwood stimulation by diquat and paraquat” value in series [4] (Example V combinations) was “increases the lightwood stimulating effects of diquat and paraquat”. For the same molecule, the “pH of a typical aqueous solution” value in series [5] (typical aqueous solution) is recorded as 1.0 pH. The “pH above which hydrolysis begins and ethylene is released” value in series [5] (xylem transport system of the tree) is more than 5 pH. Further, the LD50 dosage with rats is 4,229 mg/kg.

Turning to `c1cc[n+]2c(c1)-c1cccc[n+]1CC2` [diquat], the Rosin yield turned out to be 5.5 Pct in series [3] (0 m above wound), 2.1 Pct in [3] (0.5 m above wound) and 2.3 Pct in series [3] (1 m above wound). The “Height of oleoresin soaked wood (visible lightwood)” value in series [3] (in vivo) was “less than diquat plus 2-chloroethylphosphonic acid-treated trees”. Further, the Oleoresin content is recorded as 9.6% in [6] (0.5-1 m above wound); 4.5% in [6] (1-1.5 m above wound); 3.5% in [6] (1.5-2.5 m above wound); 2.8% in series [6] (2.5-4.5 m above wound); 1.9% in [6] (4.5-6.5 m above wound); 8.9% in [6] (setting [11]). Further, the Visible lightwood height in series [6] is 2.5-3 meters. Moreover, the “Oleoresin content, average per unit total volume” value in series [6] was 4.1%. The figures for the Average lightwood height in series [4] (setting [12]) and in series [4] (bipyridilium 2% (wt) in total) were 1.8 meters and 3.1 meters, respectively. Moreover, the “Extractive content in total merchantable length” value is listed as 15.2 lbs. extractives per average tree in series [7] (bipyridilium 0.5% (wt)) and 17.3 lbs. extractives per average tree in series [7] (bipyridilium 2% (wt)). The LD50 dosage with rats is 100 mg/kg.

Consider `C=C` [ethylene], for which the “toxic concentration of gaseous ethylene” value in the series on mice is 950,000 ppm.

`CCCN` [n-propylamine]: the LD50 dosage with rats is listed as 560 mg/kg.

As to `C[n+]1ccc(-c2cc[n+](C)cc2)cc1` [paraquat], the results for the Rosin yield in series [3] (0 m above wound) and in series [3] (0.5 m above wound) were 8.1 Pct and 2.0 Pct, respectively. For the same molecule, in [3] (cut March 1974, approximately 6 months), the “Height of oleoresin soaked wood (visible lightwood)” value is listed as “less than in diquat-treated trees”. The Oleoresin content in series [6] (0.5-1 m above wound) is 12.2%; in [6] (1-1.5 m above wound), 5.9%; in series [6] (1.5-2.5 m above wound), 3.7%; in series [6] (2.5-4.5 m above wound), 2.4%; in series [6] (4.5-6.5 m above wound), 2.0%; in series [6] (setting [11]), 10.7%. In series [6], the Visible lightwood height is on record as not above 2 meters. Further, the “Oleoresin content, average per unit total volume” value in [6] is 4.6%. The figures for the Average lightwood height in series [4] (setting [12]) and in series [4] (bipyridilium 2% (wt) in total) were 1.4 meters and 2.8 meters, respectively. Besides, the “Extractive content in total merchantable length” value was 14.8 lbs. extractives per average tree in series [7] (bipyridilium 0.5% (wt)) and 17.1 lbs. extractives per average tree in [7] (bipyridilium 2% (wt)). Further, the endogenous ethylene production result in series [8] was “marked stimulation of endogenous ethylene production”. In addition, the respiration rates result in series [8] was “rapid increase in respiration rates”. For the same molecule, the LD50 dosage in the series with rats is on record as 100 mg/kg.
